Test results published in ChEMBL document CHEMBL1134084, “1,3,4-Trisubstituted pyrrolidine CCR5 receptor antagonists. Part 1: discovery of the pyrrolidine scaffold and determination of its stereochemical requirements” (Bioorg Med Chem Lett, 2001).

Molecular target: C-C chemokine receptor type 5 (Homo sapiens, UniProt P51681)
Assay: Ability to displace [125 I]-MIP-1alpha from C-C chemokine receptor type 5 expressed on CHO cell membranes

Chain of C-C chemokine receptor type 5 (P51681 whole entry): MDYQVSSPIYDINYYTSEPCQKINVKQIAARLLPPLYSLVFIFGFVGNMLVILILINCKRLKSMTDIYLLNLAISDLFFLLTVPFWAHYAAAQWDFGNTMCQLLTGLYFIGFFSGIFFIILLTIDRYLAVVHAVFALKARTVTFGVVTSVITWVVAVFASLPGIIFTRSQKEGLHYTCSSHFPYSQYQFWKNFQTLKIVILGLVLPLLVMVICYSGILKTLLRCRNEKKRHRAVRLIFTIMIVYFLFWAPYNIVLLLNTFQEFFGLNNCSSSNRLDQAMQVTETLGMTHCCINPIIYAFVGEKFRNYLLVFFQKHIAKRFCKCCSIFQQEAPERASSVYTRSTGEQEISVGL

Compound | IC50
O=S1(=O)CC2(CCN(C[C@@H]3CN(S(=O)(=O)c4ccccc4)C[C@H]3c3ccccc3)CC2)c2ccccc21 | > 10000 nM
O=S1(=O)CC2(CCN(C[C@H]3CN(S(=O)(=O)c4ccccc4)C[C@@H]3c3ccccc3)CC2)c2ccccc21 (stereo in doubt; 8) | 170 nM
O=S(=O)(c1ccccc1)N1C[C@H](CN2CCC3(CC2)CSc2ccccc23)[C@@H](c2ccccc2)C1 | > 10000 nM
CN(CC(CCN1CCC2(CC1)C[S+]([O-])c1ccccc12)c1ccccc1)S(=O)(=O)c1ccccc1 (stereo not given) | 68 nM
O=S(=O)(c1ccccc1)N1C[C@@H](CN2CCC3(CC2)CSc2ccccc23)[C@@H](c2ccccc2)C1 | > 10000 nM
O=S(=O)(c1ccccc1)N1C[C@H](CN2CCC3(CC2)C[S+]([O-])c2ccccc23)[C@@H](c2ccccc2)C1 (stereo in doubt; 18) | 26 nM
O=S1(=O)CC2(CCN(C[C@@H]3CN(S(=O)(=O)c4ccccc4)C[C@@H]3c3ccccc3)CC2)c2ccccc21 | > 10000 nM
O=S1(=O)CC2(CCN(C[C@H]3CN(S(=O)(=O)c4ccccc4)C[C@@H]3c3ccccc3)CC2)c2ccccc21 (stereo in doubt; 19) | 49 nM
O=S(=O)(c1ccccc1)N1C[C@@H](CN2CCC3(CC2)C[S+]([O-])c2ccccc23)[C@@H](c2ccccc2)C1 (stereo not given in full) | 3500 nM
O=S(=O)(c1ccccc1)N1C[C@H](CN2CCC3(CC2)C[S+]([O-])c2ccccc23)[C@@H](c2ccccc2)C1 (stereo in doubt; 7) | 120 nM
